In patent US20230116972A1, “CD38 MODULATORS AND METHODS OF USE THEREOF” (Cytokinetics, Inc., priority 2021, published 2023):
Values belong to the molecule of their own block, whether it stands above or below them.

Legend:
mouse CD38 = target: T1, mouse CD38 (Mus musculus, UniProt P56528); test: mouse recombinant CD38 enzyme assay (hydrolysis of NAD+); type: biochemical; conditions: read-out: mCD38 BioChem IC50
T1 sequence (P56528 1-304): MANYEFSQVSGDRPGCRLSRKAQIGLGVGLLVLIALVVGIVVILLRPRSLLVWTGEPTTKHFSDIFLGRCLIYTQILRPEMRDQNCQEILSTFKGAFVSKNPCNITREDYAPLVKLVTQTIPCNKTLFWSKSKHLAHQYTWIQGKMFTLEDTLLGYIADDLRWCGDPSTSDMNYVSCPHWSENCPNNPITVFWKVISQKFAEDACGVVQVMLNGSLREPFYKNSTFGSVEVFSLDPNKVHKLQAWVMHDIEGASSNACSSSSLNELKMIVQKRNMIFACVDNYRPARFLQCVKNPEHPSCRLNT
Procedure, shortened: (§1)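 Steps: compound and recombinant enzyme are mixed, NAD+ is added, and the reaction runs 60 min at room temperature. An ADH/ethanol mix containing a CD38 inhibitor halts hydrolysis and forms NADH. After NaOH quench, resazurin plus diaphorase produce fluorescent resorufin, read at 540/590 nm.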

[1] = target: T2, endogenous CD38 in HL60 cells (Homo sapiens, UniProt P28907); test: cellular CD38 assay in HL60 cells (cellular NAD levels); type: cell-based; conditions: all-trans retinoic acid, 24 hours, read-out: hCD38 HL60 ATRA NAD Cell Diaphorase IC50
T2 construct: endogenous in cells; host or cells: HL60 (leukemic cells, treated with all-trans retinoic acid)
T2 sequence (P28907 1-300): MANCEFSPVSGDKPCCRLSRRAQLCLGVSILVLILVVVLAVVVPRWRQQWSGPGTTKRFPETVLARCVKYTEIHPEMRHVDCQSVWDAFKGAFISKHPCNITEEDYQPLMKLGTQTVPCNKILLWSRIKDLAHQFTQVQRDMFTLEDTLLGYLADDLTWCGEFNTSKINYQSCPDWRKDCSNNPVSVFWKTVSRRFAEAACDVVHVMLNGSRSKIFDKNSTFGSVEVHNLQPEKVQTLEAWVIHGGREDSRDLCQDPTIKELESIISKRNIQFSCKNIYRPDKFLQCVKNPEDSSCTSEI
Procedure, shortened: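 Endogenous CD38 inhibition is inferred from NAD levels in HL60 cells after 24 h compound exposure at 20000 cells per well. A lytic cycling readout (0.2 U/mL diaphorase, 0.8 U/mL alcohol dehydrogenase, resazurin, FMN, ethanol, 0.2% Triton X-100, Tris/EDTA pH 8.4) ran 60 min at ambient temperature. Resorufin fluorescence was read at 540/590 nm.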

human CD38 = target: T3, human CD38 (Homo sapiens, UniProt P28907); test: human recombinant CD38 enzyme assay (hydrolysis of NAD+); type: biochemical; conditions: human recombinant CD38, 0.4 nM enzyme, 62.5 μM NAD+; read-out: hCD38 BioChem IC50
T3 sequence (P28907 1-300): T2 sequence (P28907 1-300)
Procedure, shortened: as §1

Compound: NC(=O)c1cncn1-c1cccc(C(=O)Nc2ccc(C(F)(F)F)nc2)n1 [Compound 66, 6-(5-carbamoyl-1H-imidazol-1-yl)-N-(6-(trifluoromethyl)pyridin-3-yl)picolinamide]
IC50 (mouse CD38): 190 nM | IC50 [1]: 3430 nM | IC50 (human CD38): 91 nM

Compound: Cn1cncc1-c1ccnc(C(=O)N[C@H]2C[C@@H](c3ccccc3)C2)n1 [Compound 214, 4-(1-methyl-1H-imidazol-5-yl)-N-((1s,3s)-3-phenylcyclobutyl)pyrimidine-2-carboxamide]
IC50 (mouse CD38): 52.9 nM | IC50 [1]: 9860 nM | IC50 (human CD38): 323 nM

Compound: O=C(NC1CC2C(C1)C2(F)F)c1cccc(-n2ccnc2)n1 (stereo not drawn) [Compound 135, N-(6,6-difluorobicyclo[3.1.0]hexan-3-yl)-6-(1H-imidazol-1-yl)picolinamide]
IC50 (mouse CD38): 15 nM | IC50 [1]: 1320 nM | IC50 (human CD38): 76 nM

Compound: C[C@H]1CC[C@H](NC(=O)c2nccc(-n3ccnc3)n2)CC1 [Compound 146, 4-(1H-imidazol-1-yl)-N-((1r,4r)-4-methylcyclohexyl)pyrimidine-2-carboxamide]
IC50 (mouse CD38): 23 nM | IC50 [1]: 1700 nM | IC50 (human CD38): 62 nM

Compound: O=C(N[C@H]1CC[C@H](O)CC1)c1cccc(-n2ccnc2)n1 [Compound 30, N-(4-hydroxycyclohexyl)-6-(1H-imidazol-1-yl)picolinamide]
IC50 (mouse CD38): 14 nM | IC50 [1]: 2830 nM | IC50 (human CD38): 85 nM

Compound: Cn1cncc1-c1nc(C(=O)N[C@H]2CC[C@H](C(F)F)CC2)cc(C2CCOCC2)n1 [Compound 227, N-((1r,4r)-4-(difluoromethyl)cyclohexyl)-2-(1-methyl-1H-imidazol-5-yl)-6-(tetrahydro-2H-pyran-4-yl)pyrimidine-4-carboxamide]
IC50 (mouse CD38): 2.4 nM | IC50 [1]: 2070 nM | IC50 (human CD38): 9.3 nM

Compound: CC(C)c1cc(C(=O)N[C@H]2CC[C@H](C(F)F)CC2)nc(-n2ccnc2)n1 [Compound 168, N-((1r,4r)-4-(difluoromethyl)cyclohexyl)-2-(1H-imidazol-1-yl)-6-isopropylpyrimidine-4-carboxamide]
IC50 (mouse CD38): 47 nM | IC50 [1]: 8650 nM | IC50 (human CD38): 313 nM

Compound: Cc1ccc(C(=O)Nc2cccnc2)nc1-n1ccnc1 [Compound 22, 6-(1H-imidazol-1-yl)-5-methyl-N-(pyridin-3-yl)picolinamide]
IC50 (mouse CD38): 70 nM | IC50 [1]: 802 nM | IC50 (human CD38): 496 nM

Compound: Cn1cncc1-c1ccnc(C(=O)N[C@H]2CC[C@H](NCC(F)(F)F)CC2)n1 [Compound 264, 4-(1-methyl-1H-imidazol-5-yl)-N-((1r,4r)-4-((2,2,2-trifluoroethyl)amino)cyclohexyl)pyrimidine-2-carboxamide]
IC50 (mouse CD38): 15.3 nM | IC50 [1]: 2100 nM | IC50 (human CD38): 40.9 nM

Compound: Cc1cc(C(=O)N[C@H]2CC[C@H](C(F)F)CC2)nc(-n2ccnc2)n1 [Compound 120, N-((1r,4r)-4-(difluoromethyl)cyclohexyl)-2-(1H-imidazol-1-yl)-6-methylpyrimidine-4-carboxamide]
IC50 (mouse CD38): 2 nM | IC50 [1]: 1130 nM | IC50 (human CD38): 10 nM

Compound: Cn1cncc1-c1nc(C(=O)N[C@H]2CCc3cc(F)ccc32)cc(C2CCOCC2)n1 [Compound 229, (S)-N-(5-fluoro-2,3-dihydro-1H-inden-1-yl)-2-(1-methyl-1H-imidazol-5-yl)-6-(tetrahydro-2H-pyran-4-yl)pyrimidine-4-carboxamide]
IC50 (mouse CD38): 2.5 nM | IC50 [1]: 4000 nM | IC50 (human CD38): 11.2 nM

Compound: Cc1cc(C(=O)Nc2cccnc2)nc(-n2ccnc2)c1 [Compound 32, 6-(1H-imidazol-1-yl)-4-methyl-N-(pyridin-3-yl)picolinamide]
IC50 (mouse CD38): 1 nM | IC50 [1]: 264 nM | IC50 (human CD38): 3 nM

Next, values leading:

IC50 (mouse CD38): 27 nM | IC50 [1]: 1400 nM | IC50 (human CD38): 67 nM
Compound: O=C(Nc1ccccc1F)c1cccc(-n2ccnc2)n1 [Compound 17, N-(2-fluorophenyl)-6-(1H-imidazol-1-yl)picolinamide]

IC50 (mouse CD38): 7.5 nM | IC50 [1]: 1370 nM | IC50 (human CD38): 8.9 nM
Compound: Cn1cncc1-c1cnc(N)c(C(=O)Nc2ccc(C(F)(F)F)nc2)n1 [Compound 314, 3-amino-6-(1-methyl-1H-imidazol-5-yl)-N-(6-(trifluoromethyl)pyridin-3-yl)pyrazine-2-carboxamide]

IC50 (mouse CD38): 12 nM | IC50 [1]: 4810 nM | IC50 (human CD38): 61 nM
Compound: CO[C@H]1CC[C@H](NC(=O)c2cc(C(F)(F)F)cc(-n3ccnc3)n2)CC1 [Compound 60, 6-(1H-imidazol-1-yl)-N-(4-methoxycyclohexyl)-4-(trifluoromethyl)picolinamide]

IC50 (mouse CD38): 4 nM | IC50 [1]: 1780 nM | IC50 (human CD38): 8 nM
Compound: CC(C)c1cc(C(=O)Nc2ccc(C(F)(F)F)nc2)nc(-c2cncn2C)n1 [Compound 174, 6-isopropyl-2-(1-methyl-1H-imidazol-5-yl)-N-(6-(trifluoromethyl)pyridin-3-yl)pyrimidine-4-carboxamide]

IC50 (mouse CD38): 5.8 nM | IC50 [1]: 1010 nM | IC50 (human CD38): 4.3 nM
Compound: Cn1cncc1-c1ccnc(C(=O)Nc2ccc(C(C)(C)O)cc2)n1 [Compound 358, N-(4-(2-hydroxypropan-2-yl)phenyl)-4-(1-methyl-1H-imidazol-5-yl)pyrimidine-2-carboxamide]

IC50 (mouse CD38): 1.7 nM | IC50 [1]: 1460 nM | IC50 (human CD38): 4.3 nM
Compound: Cn1cncc1-c1nc(C(=O)N[C@H]2C[C@H](c3ccccc3)C2)cc(C2CCOCC2)n1 [Compound 230, 2-(1-methyl-1H-imidazol-5-yl)-N-((1r,3r)-3-phenylcyclobutyl)-6-(tetrahydro-2H-pyran-4-yl)pyrimidine-4-carboxamide]

IC50 (mouse CD38): 61.8 nM | IC50 [1]: 8770 nM | IC50 (human CD38): 82.9 nM
Compound: Cn1cncc1-c1ccnc(C(=O)N[C@H]2CCN(c3ccccc3)C2)n1 [Compound 246, (S)-4-(1-methyl-1H-imidazol-5-yl)-N-(1-phenylpyrrolidin-3-yl)pyrimidine-2-carboxamide]

IC50 (mouse CD38): 1 nM | IC50 [1]: 499 nM | IC50 (human CD38): 1.9 nM
Compound: COCCOc1cc(C(=O)Nc2ccc(C(F)F)nc2)nc(-n2ccnc2)c1 [Compound 244, N-(6-(difluoromethyl)pyridin-3-yl)-6-(1H-imidazol-1-yl)-4-(2-methoxyethoxy)picolinamide]

IC50 (mouse CD38): 122 nM | IC50 [1]: 3990 nM | IC50 (human CD38): 296 nM
Compound: O=C(NC1CCOCC1)c1cccc(-n2ccnc2)n1 [Compound 12, 6-(1H-imidazol-1-yl)-N-(tetrahydro-2H-pyran-4-yl)picolinamide]

IC50 (mouse CD38): 2 nM | IC50 [1]: 765 nM | IC50 (human CD38): 7 nM
Compound: Cn1cncc1-c1nccc(C(=O)N[C@H]2CC[C@H](C)CC2)n1 [Compound 85, 2-(1-methyl-1H-imidazol-5-yl)-N-((1r,4r)-4-methylcyclohexyl)pyrimidine-4-carboxamide]

IC50 (mouse CD38): 27.2 nM | IC50 [1]: 1870 nM | IC50 (human CD38): 46.4 nM
Compound: O=C(N[C@H]1C[C@H](c2ccccc2F)C1)c1nccc(-n2ccnc2)n1 [Compound 236, N-((1r,3r)-3-(2-fluorophenyl)cyclobutyl)-4-(1H-imidazol-1-yl)pyrimidine-2-carboxamide]

IC50 (mouse CD38): 61 nM | IC50 [1]: 6200 nM | IC50 (human CD38): 263 nM
Compound: CO[C@H]1CC[C@H](NC(=O)c2nc(-n3ccnc3)ccc2C)CC1 [Compound 100, 6-(1H-imidazol-1-yl)-N-(4-methoxycyclohexyl)-3-methylpicolinamide]

IC50 (mouse CD38): 185 nM | IC50 [1]: 10800 nM | IC50 (human CD38): 404 nM
Compound: Cn1cncc1-c1ccnc(C(=O)N[C@H]2C[C@@H](c3ccc(C(F)(F)F)nc3)C2)n1 [Compound 274, 4-(1-methyl-1H-imidazol-5-yl)-N-((1s,3s)-3-(6-(trifluoromethyl)pyridin-3-yl)cyclobutyl)pyrimidine-2-carboxamide]

IC50 (mouse CD38): 19 nM | IC50 [1]: 2080 nM | IC50 (human CD38): 38 nM
Compound: CO[C@H]1CC[C@H](NC(=O)c2cncc(-c3cncn3C)n2)CC1 [Compound 91, N-((1r,4r)-4-methoxycyclohexyl)-6-(1-methyl-1H-imidazol-5-yl)pyrazine-2-carboxamide]

IC50 (mouse CD38): 13 nM | IC50 [1]: 7850 nM | IC50 (human CD38): 73 nM
Compound: COCCO[C@H]1CC[C@H](NC(=O)c2cc(C(F)(F)F)cc(-n3ccnc3)n2)CC1 [Compound 61, 6-(1H-imidazol-1-yl)-N-(4-(2-methoxyethoxy)cyclohexyl)-4-(trifluoromethyl)picolinamide]

IC50 (mouse CD38): 4 nM | IC50 [1]: 298 nM | IC50 (human CD38): 6 nM
Compound: O=C(Nc1ccnc(C(F)F)c1)c1cccc(-n2ccnc2)n1 [Compound 39, N-(2-(difluoromethyl)pyridin-4-yl)-6-(1H-imidazol-1-yl)picolinamide]
